Laboratory results published in PMC10709440, “High-throughput ligand profile characterization in novel cell lines expressing seven heterologous insect olfactory receptors for the detection of volatile plant biomarkers” (Scientific Reports, 2023).
Where two headings read alike, the source gives them in different places.

How the values were obtained:
Drosophila OR10a = target: T1, Drosophila OR10a (Drosophila melanogaster, UniProt Q9VYZ1); assay: Calcium ion fluorescence (GCaMP6) assay, OR10a stable HEK293 cell line; assay type: cell-based
T1 construct: expressed in transfected cells
T1 sequence (Q9VYZ1 1-406): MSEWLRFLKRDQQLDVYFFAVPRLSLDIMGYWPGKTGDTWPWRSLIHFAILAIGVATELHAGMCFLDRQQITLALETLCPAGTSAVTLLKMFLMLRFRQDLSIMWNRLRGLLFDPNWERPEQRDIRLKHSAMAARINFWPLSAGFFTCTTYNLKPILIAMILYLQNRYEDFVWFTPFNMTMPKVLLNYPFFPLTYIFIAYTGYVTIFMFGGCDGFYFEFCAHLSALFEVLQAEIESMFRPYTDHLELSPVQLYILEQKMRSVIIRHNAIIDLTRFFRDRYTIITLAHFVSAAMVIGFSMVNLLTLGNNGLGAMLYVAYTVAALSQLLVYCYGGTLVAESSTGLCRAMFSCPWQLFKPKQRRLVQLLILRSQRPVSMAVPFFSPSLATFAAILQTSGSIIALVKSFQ
T1 sequence (Q9VNB5 1-486 partner): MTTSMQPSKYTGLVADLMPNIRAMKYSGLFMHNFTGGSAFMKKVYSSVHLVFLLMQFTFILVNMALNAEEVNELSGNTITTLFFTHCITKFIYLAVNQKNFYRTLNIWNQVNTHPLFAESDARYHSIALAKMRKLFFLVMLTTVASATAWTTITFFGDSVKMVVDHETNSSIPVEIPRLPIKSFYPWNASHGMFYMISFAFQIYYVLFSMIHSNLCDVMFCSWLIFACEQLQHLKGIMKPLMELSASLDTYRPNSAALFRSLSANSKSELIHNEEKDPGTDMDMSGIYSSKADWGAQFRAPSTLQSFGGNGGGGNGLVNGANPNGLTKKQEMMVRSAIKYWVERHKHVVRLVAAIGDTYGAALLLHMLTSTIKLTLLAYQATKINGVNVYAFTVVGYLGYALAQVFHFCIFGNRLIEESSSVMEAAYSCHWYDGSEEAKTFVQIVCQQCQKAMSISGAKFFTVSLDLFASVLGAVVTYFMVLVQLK
How it was run: (§1)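 Responses are VUAA1-normalized ΔF: each VOC-evoked calcium signal, (FMAX−F0)/F0 over 30 s after injection, divided by the same line's mean 50 µM VUAA1 response. Cells were doxycycline-induced HEK293 with GCaMP6 and the cognate Drosophila OR, in HEPES buffer pH 7.3; ligands tested 0.01–100 μM.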

Drosophila OR13a = target: T2, Drosophila OR13a (Drosophila melanogaster, UniProt Q9VXL0); assay: Calcium ion fluorescence (GCaMP6) assay, OR13a stable HEK293 cell line; assay type: cell-based
T2 construct: expressed in transfected cells
T2 sequence (Q9VXL0 1-418): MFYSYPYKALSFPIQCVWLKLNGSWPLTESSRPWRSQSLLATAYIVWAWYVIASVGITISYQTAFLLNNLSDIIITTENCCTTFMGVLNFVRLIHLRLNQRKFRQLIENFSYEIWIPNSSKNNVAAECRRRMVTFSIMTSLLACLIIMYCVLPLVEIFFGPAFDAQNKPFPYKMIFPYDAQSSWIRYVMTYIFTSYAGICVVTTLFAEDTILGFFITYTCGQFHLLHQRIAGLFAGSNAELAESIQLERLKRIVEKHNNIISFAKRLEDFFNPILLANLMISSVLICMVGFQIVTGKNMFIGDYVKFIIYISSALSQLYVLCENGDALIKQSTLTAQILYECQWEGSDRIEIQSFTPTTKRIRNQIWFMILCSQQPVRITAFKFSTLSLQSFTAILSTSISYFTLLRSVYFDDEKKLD
T2 sequence (Q9VNB5 1-486 partner): T1 sequence (Q9VNB5 1-486 partner)
How it was run: as §1

[1] = 100 µM, OR10a clone G5, single plate 2019.12.05
[2] = HEK293, 1 μM VOC, 50 μM VUAA1 = 1, responses not exceeding 0.05 considered 0, read-out: OR10a Average response (VUAA1-normalized)
[3] = HEK293, 10 μM VOC, 50 μM VUAA1 = 1, responses not exceeding 0.05 considered 0, read-out: OR10a Average response (VUAA1-normalized)
[4] = HEK293, 100 μM VOC, 50 μM VUAA1 = 1, responses not exceeding 0.05 considered 0, read-out: OR10a Average response (VUAA1-normalized)
[5] = HEK293, read-out: OR10a response (VUAA1-normalized response), VOC concentration 1 μM
[6] = HEK293, read-out: OR10a response (VUAA1-normalized response), VOC concentration 10 μM
[7] = HEK293, read-out: OR10a response (VUAA1-normalized response), VOC concentration 100 μM
[8] = ligand concentration 1 (unit not given), threshold 0.05, below shown as 0
[9] = ligand concentration 10 (unit not given), threshold 0.05, below shown as 0
[10] = ligand concentration 100 (unit not given), threshold 0.05, below shown as 0
[11] = HEK293, read-out: OR13a Average response (VUAA1-normalized), 1 μM VOC, 50 μM VUAA1 = 1, responses not exceeding 0.05 considered 0
[12] = HEK293, read-out: OR13a Average response (VUAA1-normalized), 10 μM VOC, 50 μM VUAA1 = 1, responses not exceeding 0.05 considered 0
[13] = HEK293, read-out: OR13a Average response (VUAA1-normalized), 100 μM VOC, 50 μM VUAA1 = 1, responses not exceeding 0.05 considered 0
[14] = HEK293, read-out: OR13a response (VUAA1-normalized response), VOC concentration 1 μM
[15] = HEK293, read-out: OR13a response (VUAA1-normalized response), VOC concentration 10 μM
[16] = HEK293, read-out: OR13a response (VUAA1-normalized response), VOC concentration 100 μM
[17] = 1 μM VOC, 50 μM VUAA1 = 1, responses not exceeding 0.05 considered 0
[18] = 10 μM VOC, 50 μM VUAA1 = 1, responses not exceeding 0.05 considered 0
[19] = 100 μM VOC, 50 μM VUAA1 = 1, responses not exceeding 0.05 considered 0

## CCCCOC(=O)CC [butyl propanoate]
Drosophila OR10a; [1]
  DF norm, all technical replicates: 0
  DF norm, outlier technical replicates removed: 0
  DF, outlier technical replicates removed: 0
Drosophila OR10a; 100 µM, OR10a clone G5, single plate 2019.12.05, xc+0.1%DMSO
  DF, all technical replicates: 0
Drosophila OR10a; [2]
  activation at 1 µM: 0%
Drosophila OR10a; [3]
  activation at 10 µM: 0%
Drosophila OR10a; [4]
  activation at 100 µM: 3.44%
Drosophila OR10a; [5]
  activation at 1 µM: 0%
Drosophila OR10a; [6]
  activation at 10 µM: 0%
Drosophila OR10a; [7]
  activation at 100 µM: 0%
Drosophila OR10a; [8]
  DF norm AVERAGE OR10a: 0
Drosophila OR10a; [9]
  DF norm AVERAGE OR10a: 0
Drosophila OR10a; [10]
  DF norm AVERAGE OR10a: 0
Drosophila OR13a; [11]
  activation at 1 µM: 0%
Drosophila OR13a; [12]
  activation at 10 µM: 0%
Drosophila OR13a; [13]
  activation at 100 µM: 0%
Drosophila OR13a; [14]
  activation at 1 µM: 0%
Drosophila OR13a; [15]
  activation at 10 µM: 0%
Drosophila OR13a; [16]
  activation at 100 µM: 0%
Drosophila OR13a; [8]
  DF norm AVERAGE OR13a: 0
Drosophila OR13a; [9]
  DF norm AVERAGE OR13a: 0
Drosophila OR13a; [10]
  DF norm AVERAGE OR13a: 0

## C=C(C)[C@H]1CC=C(C)CC1 [limonene]
Drosophila OR10a; [17]
  OR10a Average response (VUAA1-normalized): 0.00
Drosophila OR10a; [18]
  OR10a Average response (VUAA1-normalized): 0.00
Drosophila OR10a; [19]
  OR10a Average response (VUAA1-normalized): 0.06
Drosophila OR10a; VOC concentration 1 μM
  OR10a response (VUAA1-normalized response): 0.00
Drosophila OR10a; VOC concentration 10 μM
  OR10a response (VUAA1-normalized response): 0.00
Drosophila OR10a; VOC concentration 100 μM
  OR10a response (VUAA1-normalized response): 0.06
Drosophila OR10a; [8]
  DF norm AVERAGE OR10a: 0
Drosophila OR10a; [9]
  DF norm AVERAGE OR10a: 0
Drosophila OR10a; [10]
  DF norm AVERAGE OR10a: 0.05729
Drosophila OR13a; [17]
  OR13a Average response (VUAA1-normalized): 0.00
Drosophila OR13a; [18]
  OR13a Average response (VUAA1-normalized): 0.00
Drosophila OR13a; [19]
  OR13a Average response (VUAA1-normalized): 0.00
Drosophila OR13a; VOC concentration 1 μM
  OR13a response (VUAA1-normalized response): 0.00
Drosophila OR13a; VOC concentration 10 μM
  OR13a response (VUAA1-normalized response): 0.00
Drosophila OR13a; VOC concentration 100 μM
  OR13a response (VUAA1-normalized response): 0.00
Drosophila OR13a; [8]
  DF norm AVERAGE OR13a: 0
Drosophila OR13a; [9]
  DF norm AVERAGE OR13a: 0
Drosophila OR13a; [10]
  DF norm AVERAGE OR13a: 0

## CCCCCO [1-pentanol]
Drosophila OR10a
  DF norm AVERAGE OR10a: 0
Drosophila OR10a; [2]
  activation at 1 µM: 0%
Drosophila OR10a; [3]
  activation at 10 µM: 0%
Drosophila OR10a; [4]
  activation at 100 µM: 0%
Drosophila OR10a; [5]
  activation at 1 µM: 0%
Drosophila OR10a; [6]
  activation at 10 µM: 0%
Drosophila OR10a; [7]
  activation at 100 µM: 0%
Drosophila OR13a; [11]
  activation at 1 µM: 0%
Drosophila OR13a; [12]
  activation at 10 µM: 1.6%
Drosophila OR13a; [13]
  activation at 100 µM: 0%
Drosophila OR13a; [14]
  activation at 1 µM: 0%
Drosophila OR13a; [15]
  activation at 10 µM: 0%
Drosophila OR13a; [16]
  activation at 100 µM: 0%
Drosophila OR13a; concentration 1, normalized fluorescence change, values below 0.05 threshold given as 0
  DF norm AVERAGE OR13a: 0
Drosophila OR13a; concentration 10, normalized fluorescence change, values below 0.05 threshold given as 0
  DF norm AVERAGE OR13a: 0
Drosophila OR13a; concentration 100, normalized fluorescence change, values below 0.05 threshold given as 0
  DF norm AVERAGE OR13a: 0
